Test results as given in US7253293B2, “Enzymatic method to produce 7-dehydropregnenolone, vitamin D3-like compounds and derivatives thereof” (priority 2004, dated 2007).

Legend:
[1] = biological target: T1, Bovine P450scc (Bos taurus, UniProt P00189); experiment: Side-chain cleavage kinetics by bovine cytochrome P450scc in phospholipid vesicles; type: biochemical; details: for kcat: substrate and P450scc in dioleoylphosphatidylcholine vesicles containing cardiolipin, ±SE
T1 construct: isolated from adrenals; from tissue; host or cells: bovine adrenals
T1 sequence (P00189 40-520): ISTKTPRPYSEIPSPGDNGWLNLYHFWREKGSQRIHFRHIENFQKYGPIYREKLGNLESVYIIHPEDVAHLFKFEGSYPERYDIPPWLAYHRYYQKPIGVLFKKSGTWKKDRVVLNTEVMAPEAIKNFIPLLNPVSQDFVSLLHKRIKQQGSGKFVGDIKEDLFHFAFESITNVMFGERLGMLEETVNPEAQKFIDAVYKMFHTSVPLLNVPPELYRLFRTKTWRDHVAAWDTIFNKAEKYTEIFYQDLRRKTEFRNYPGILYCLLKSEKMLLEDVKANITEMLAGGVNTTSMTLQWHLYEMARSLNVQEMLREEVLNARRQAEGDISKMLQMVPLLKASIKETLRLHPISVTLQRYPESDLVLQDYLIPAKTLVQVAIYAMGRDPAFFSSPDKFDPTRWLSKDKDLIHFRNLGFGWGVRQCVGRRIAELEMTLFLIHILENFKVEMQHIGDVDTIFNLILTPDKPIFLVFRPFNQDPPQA
T1 sequence (P00257 59-186 partner): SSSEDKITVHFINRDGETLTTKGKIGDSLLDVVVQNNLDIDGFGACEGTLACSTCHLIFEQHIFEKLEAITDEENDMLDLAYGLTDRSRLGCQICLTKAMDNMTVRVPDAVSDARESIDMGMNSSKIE
Description: (§1) Large-scale reactions (50 mL) to cleave the side chain of 7-DHC were performed with purified bovine P450scc and its electron-transfer system in a manner similar to that described for cholesterol (41). The incubation mixture comprised 510 μM phospholipids vesicles (dioleoylphosphatidylcholine plus 15 mol % cardiolipin) with a substrate to phospholipids molar ration of 0.2 50 μM NADPH, 2 mM glucose 6-phosphate, 2 U-mL^−1 glucose 6-phosphate dehydrogenase, 0.3 μM adrenodoxin reductase, 6.5 μM adrenodoxin, 1.0 μM cytochrome P450scc and buffer, pH 7.4 (41). After incubation at 37° C. for 3 h, the mixture was extracted three times with 50 mL methylene chloride and dried under nitrogen at 35° C. Products were purified by preparative TLC on silica gel G with three developments in hexane/ethyl acetate (3:1 v/v) and products eluted from the silica gel with chloroform/methanol (1:1, v/v). Samples were dried under nitrogen and shipped for analysis on dry ice. Small-scale reactions (0.25 mL) to determine the kinetics of 7-DHC and cholesterol metabolism were performed with either bovine or human cytochrome P450scc as described for cholesterol (41). The amount of 7-DHP produced from 7-DHC was measured by RIA [25] using purified 7-DHP as standard.
(§2) Table 2 contains the kinetic parameters for side-cahin cleavage of 7-DHC and cholesterol by bovine and human cytochromes P450scc. Kinetic parameters were determined with substrates and P450scc incorporated into dioleoylphosphatidylcholine (PL) vesicles containing cardiolipin. Values for Kcat and Km are ±SE and are expressed as min^−1 and mol sterol-mol PL^−1, respectively. They were obtained from fitting hyperbolic curves to the kinetic data using KALEIDAGRAPH.

[2] = biological target: T2, Human P450scc (Homo sapiens, UniProt P05108); experiment: Side-chain cleavage kinetics by human cytochrome P450scc in phospholipid vesicles; type: biochemical; details: for kcat: substrate and P450scc in dioleoylphosphatidylcholine vesicles containing cardiolipin, ±SE
T2 construct: made in house; host or cells: Escherichia coli
T2 sequence (P05108 40-521): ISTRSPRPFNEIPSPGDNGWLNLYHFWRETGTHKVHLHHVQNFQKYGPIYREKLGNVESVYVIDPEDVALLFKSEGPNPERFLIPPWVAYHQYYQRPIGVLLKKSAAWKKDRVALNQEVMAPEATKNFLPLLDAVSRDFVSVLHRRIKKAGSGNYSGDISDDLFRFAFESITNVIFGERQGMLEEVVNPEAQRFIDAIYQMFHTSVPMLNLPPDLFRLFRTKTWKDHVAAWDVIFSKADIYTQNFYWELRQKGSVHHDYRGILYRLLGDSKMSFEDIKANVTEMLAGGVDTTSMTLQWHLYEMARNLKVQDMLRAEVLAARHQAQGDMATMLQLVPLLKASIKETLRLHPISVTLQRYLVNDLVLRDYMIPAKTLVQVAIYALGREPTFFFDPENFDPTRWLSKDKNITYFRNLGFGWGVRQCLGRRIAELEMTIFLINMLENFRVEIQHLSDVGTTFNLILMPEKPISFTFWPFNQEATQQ
T2 sequence (P10109 61-184 partner): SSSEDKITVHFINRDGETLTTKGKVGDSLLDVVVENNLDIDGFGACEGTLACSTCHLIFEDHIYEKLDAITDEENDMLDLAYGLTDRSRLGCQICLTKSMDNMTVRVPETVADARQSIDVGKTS
Description: as §1
as §2, with “[…].” for “KALEIDAGRAPH.”

[3] = biological target: T1, Bovine P450scc; details: 2-hydroxypropyl-β-cyclodextrin; cited from earlier work
[4] = test system: MLN64 and StAR; details: reconstituted in vitro system; compared with cholesterol; cited from earlier work
[5] = test system: mitochondria from skin cells; experiment: Side-chain cleavage of radiolabelled cholesterol by mitochondria isolated from skin cells; type: biochemical; details: for conversion relative to that reported for placental mitochondria: cutaneous mitochondria versus literature value for placental mitochondria
Description: Mitochondrial fractions of the test tissue, i.e., skin, adrenals or placenta, were prepared by homogenizing the tissue in 5 vols ice-cold 0.25 M sucrose containing protease inhibitor cocktail (Sigma) (38). The homogenate was centrifuged at 600 g for 10 min at 4° C., and the resulting supernatant was centrifuged at 6000 g (placenta) or 9000 g (skin and adrenals) for 20 min at 4° C. to sediment the mitochondrial fraction. The pellet was resuspended in 0.25 M sucrose, and the mitochondrial fraction was again sedimented under the same conditions. The washed mitochondrial fraction was resuspended in 0.25 M sucrose and used for enzymatic reaction. For cultured skin cells, the above procedure was carried out after the cells had been swelled for 30 min in 20 mM HEPES, pH 7.4, before homogenization.
[4-^14C]Cholesterol (58 mCi.mmol^−1; Amersham Bioscience) was purified before its use as a substrate by mitochondria, by TLC on silica gel G plates in hexane/acetone (7:3, v/v). Isolated mitochondria (0.5 mg protein) were then preincubated (15 min at 37° C.) with purified [4-^14C]cholesterol (1 μCi, 34 μM) in 0.5 mL medium comprising 0.25M sucrose, 50 mM HEPES, pH 7.4, 20 mM KCl, 5 mM MgSO4, 0.2 mM EDTA, 0.4 μM adrenodoxin reductase, 6 μM adrenodoxin, 5 μM N-62 StAR protein (gift from W. Miller, University of California, San Francisco, Calif., USA) and 8 μM cyanoketone. The reaction was started by adding NADPH (0.5 mM) and isocitrate (5 mM), and samples were incubated at 37° C. for 150 min. The reaction was stopped by the addition of 1 mL ice-cold methylene chloride, and the incubation mixture extracted twice more with 1 mL methylene chloride. The fractions were combined, dried under nitrogen, and subjected to TLC on silica gel G plates and developed with hexane/acetone (7:3, v/v). Radiolabelled products were visualized using a phosphoimager, the steroids eluted from the plate with chloroform/methanol (1:1, v/v), and the associated radioactivity measured by scintillation counting.

[6] = cutaneous mitochondria, 34 μM substrate, 150 min at 37° C.

SMILES	kcat [1] [s⁻¹]	kcat [2] [s⁻¹]	kcat relative to that for cholesterol ([1]; substrate dissolved in membrane of phospholipid vesicles) [%]	kcat relative to that for cholesterol [2] [%]	Vmax compared with cholesterol [3]	efficiency of transport from donor to acceptor vesicles [4]	conversion relative to that reported for placental mitochondria [5] [%]	conversion relative to that reported for placental mitochondria ([5]; listed as [4-^14C]-cholesterol)	rate of conversion into pregnenolone [5, 6] [%]	rate of conversion into progesterone [5, 6] [%]
CC(C)CCC[C@@H](C)[C@H]1CC[C@H]2[C@@H]3CC=C4C[C@@H](O)CC[C@]4(C)[C@H]3CC[C@]12C [Cholesterol, cholesterol]	0.655 ± 0.0283	0.317 ± 0.0067								
CC(C)CCC[C@@H](C)[C@H]1CC[C@H]2C3=CC=C4C[C@@H](O)CC[C@]4(C)[C@H]3CC[C@]12C [7-DHC, cholesta-5,7-dien-3β-ol]	0.407 ± 0.0183	0.222 ± 0.0067	62	70	same Vmax for 7-DHC and cholesterol	efficiency similar to that for cholesterol				
CC(C)CCC[C@@H](C)[C@H]1CC[C@H]2[C@@H]3CC=C4[14CH2][C@@H](O)CC[C@]4(C)[C@H]3CC[C@]12C [[4-^14C]cholesterol, [4-^14C]Cholesterol]							~1	approximately 1%	0.14	0.04
